Activity data for one compound are collected here from ChEMBL document CHEMBL5149973, “Agaricus bisporus-Derived Glucosamine Hydrochloride Facilitates Skeletal Injury Repair through Bmp Signaling in Zebrafish Osteoporosis Model” (J Nat Prod, 2021).

Assay [1] is filed under the species Danio rerio. Description: Anti-osteoporosis activity in FAC-induced skeletal injury Zebrafish assessed as increase in cumulative bone optical density in caudal fins at 0.1 % measured for 10 day post fertilization. Format: functional, organism-based.
The next assay concerns Osteoblast. Description: Induction of osteoblast differentiation in Zebrafish embryo assessed as upregulation of runx2b gene expression in parasphenoid measured at 0.75 to 72 hrs post fertilization at 0.05 to 0.3 % by […] analysis. The following applies: Danio rerio, dose 0.05-0.3 %, time 0.75-72 hrs. Format: functional. On the technique in general: In an ELISA, binding on a coated surface is turned into a signal by an enzyme label.

Assay [2] is described as follows: Induction of Zebrafish embryo skeletal development assessed as ventralized embryos at 0.3 % measured at 24 hrs post fertilization relative to control. The assay is classed as functional, Danio rerio.
For assay [3], the species on record is Danio rerio. Description: Anti-osteoporosis activity in FAC-induced skeletal injury Zebrafish assessed as rescue of skeletal density in spine at 0.1 % measured for 10 day post fertilization. Format: functional, organism-based.
Assay [4] is filed under the species Danio rerio. Description: Anti-osteoporosis activity in FAC-induced skeletal injury Zebrafish larvae assessed as increase in Col10a1a mRNA expression level measured for 10 day post fertilization by semiquantitative-PCR analysis. The assay is classed as functional, organism-based. The following applies: Larva.
The species entered for assay [5] is Danio rerio. Description: Suppression of Bmp signaling in Zebrafish embryo assessed as reduction in indistinctive tail tissue at 0.1 % measured at 26 hrs post fertilization in presence of dorsomorphin. The assay is classed as functional. Further details: scale not given: the % may be the effect or the level left.
The species named for assay [6] is Danio rerio. Put plainly: Induction of Zebrafish embryo skeletal development assessed as upregulation of col10a1a gene expression in head bone at 0.01 to 0.3 % measured after 72 hrs post fertilization by […] analysis. Format: functional, tissue-based. The following applies: dose 0.01-0.3 %.

The source made the active and inactive calls. No cut-off for these calls is given here.

On to `Cl.N[C@@H]1[C@@H](O)[C@H](O)[C@@H](CO)O[C@H]1O`, for which the outcome in the assay listed under Danio rerio [1], in the assay with Osteoblast, in the assay listed under Danio rerio [3], in the assay filed under Danio rerio [4] and in the assay listed under Danio rerio [6] was Active. For the same compound, the Activity (in assay [2]; in the assay listed under Danio rerio [5]) was 20% each time.
